This is an account of results in US11529344B2, “EZH2 inhibitor combination therapies” (Pfizer Inc., priority 2017, dated 2022).

What all share (type): cell-based
The subject of one assay is H446 SCLC cells. The experiment in a line: Cell growth inhibition assay, H446 SCLC cells. The settings on record: Homo sapiens, NCI-H446, 504 h; H446 cell line, 21 days of treatment; read-out: inhibition of cell proliferation, mean IC50. Here is the method:
(§1) COR-L88 (92031917) cells were purchased from ECACC. […] No. 1565565).
(§2) H841, H446 and H69 cells were plated in their recommended complete culture medium described above (1 mL/well) in triplicate 12 well plates for each cell line at a density of 100,000 cells per well. Plates were incubated overnight at 37° C. and 5% CO2. Compound 1 stock was prepared at 50 mM in DMSO and was dispensed to several single-use aliquots and stored at −20° C. To prepare the compound plate, Compound 1 was diluted to 3 mM in DMSO and then 3-fold serial dilution were made in DMSO (10 doses in total). […] On Day 21, cell morphology was observed under microscope and any morphology changes upon compound treatment were recorded. […] Cell viability was measured using according to manufacturer's instructions.
(§3) Based on the strong activity observed with Compound 1 in DMS114 cells (see example 1 above), the antiproliferative activity of Compound 1 was also tested in 3 additional SCLC cell lines, namely H841, H446 and H69 using the cell proliferation assay described above. Each cell line was treated with different concentrations of Compound 1 using a 10-point dose curve (1:3 dilution in DMSO) with 3 μM to 0.1 nM for 21 days and then assessed for cell viability. […]

Another assay deals with DMS114 SCLC cells. Briefly: Cell growth inhibition assay for DMS114 SCLC cells. The settings on record: Homo sapiens, DMS-114, 17-21 days of treatment, mean of 6 biological replicates, read-out: Proliferation IC50 ± SD (nM) (n). How it is done:
as §1
DMS114 SCLC cells were plated in complete cell culture medium described above (1 mL/well) in a 12-well clear, flat bottom polystyrene tissue culture plate (Falcon, Cat. 353225) at a density of 10,000 cells/well. Plates were incubated overnight for 16 hours at 37° C. and 5% CO2. Cells were then treated for 3 days with a 10-point, 3-fold serial dilution of Compound 1 starting at a high concentration of 3 μM. After 3 days, cells from each individual dose treatment were dissociated with Trypsin-EDTA (0.25%) (Gibco/Life Technologies Cat. 25200-056), resuspended in fresh medium, and counted using Vi-Cell cell counter and cell viability analyzer (Beckman Coulter, cat. 383556). […] Plates were then read in an Infinite M200 Pro microplate reader (Tecan Cat. 396235) using a fluorescence excitation wavelength of 540 nm to 570 nm (peak excitation is 570 nm) and emission at 580 nm to 610 nm (peak emission is 585 nm). IC50 values were calculated using nonlinear regression dose response curve fit in GraphPad Prism version 7.02.
The activity of Compound 1 in inhibiting cell proliferation of EZH2-WT DMS114 SCLC cells was also assessed using the cell proliferation assay for DMS114 SCLC cells described above. […]

In a further assay the test system is H841 SCLC cells. The experiment in a line: Cell growth inhibition assay, H841 SCLC cells. Conditions: NCI-H841, 504 h; H841 cell line, 21 days of treatment; read-out: inhibition of cell proliferation, mean IC50. Here is the method:
as §1, §2, §3

For the molecule `COc1cc(C)[nH]c(=O)c1CN1CCc2c(Cl)cc([C@H](OC)C3COC3)c(Cl)c2C1=O` [Compound 1, 5,8-dichloro-2-[(4-methoxy-6-methyl-2-oxo-1,2-dihydro-pyridin-3-yl)methyl]-7-[(R)-methoxy(oxetan-3-yl)methyl]-3,4-dihydroisoquinolin-1(2H)-one], the IC50 in the assay on H446 SCLC cells came to 109 nM; in the assay with DMS114 SCLC cells, 18.8 nM; in the assay with H841 SCLC cells it was 73.2 nM.
